In one series the target is Mt ODCase (Methanothermobacter thermautotrophicus, UniProt O26232). The conditions noted are these: read-out: inhibition constant (Ki), Mt ODCase; cited from earlier work.
For series [1], the system named is mouse L1210 leukemia cells. The conditions noted are these: 25 μM, cultured mouse L1210 leukemia cells; cited from earlier work.
The subject of series [2] is leukemia/lymphoma and breast cancer cell lines (AML1, AML2, SKW3, OCI LY7, OCI MY2, MDA-MB-468 and MCF7). The series is described as follows: WST-1 cell growth assay, summary over cell lines. It is filed as cell-based. The conditions noted are these: Homo sapiens, read-out: Inhibition constants (IC50s), range over cell lines. The method, then: (§1) Thirteen C6 substituted nucleoside derivatives were tested against seventeen cancer cell lines in order to understand their anticancer activity potential. Cell growth was measured in 96 well plates (6 replicates per dose) in which 10^4 cells were seeded for 3 days with a range of concentrations of compound Ic and Id using the Roche WST-1 assay (Ishiyama M et al (1995) In Vitro Toxicology 8, 187-189) following manufactures directions.
For orientation: Tetrazolium assays rely on reduction of a dye to a coloured formazan, in cell work by metabolically active cells.

Series [3] relates to PBMC - Peripheral blood mononuclear cells. In words: WST-1 cell growth assay on stimulated PBMCs (Table 3). In kind it is cell-based, human.
A short description of series [4]: Tolerance in NOD-SCID mice. Particulars: 0.15 mg/kg and 1.5 mg/kg. It is filed as in vivo. How it is done:
(§2) In a pilot study, first the in vivo effects of compound Ic in a murine tumor model (70Z/3) were studied. […]. In this pilot study, 10^6 70Z/3 cells were injected into syngeneic mice (C57BL6×DBA/2) after which the mice were treated with compound Ic on days 2, 3, 4, 7, 8, and 9 at doses of 0.15 mg/kg or 1.5 mg/kg or with PBS. Some mice were also treated with the compound alone to test for toxic effects in the absence of tumor growth. On day 10, two mice from each group were euthanized and they were examined for the presence of disease. After 70Z/3 cells are injected they home to the spleen and proliferate causing increased spleen weight and cellularity. […]. Two additional mice from each group were followed for an additional 7 days during which mice in the treatment groups were treated daily.

In series [5] the test system is 70Z/3 murine acute lymphoblastic leukemia. In words: In vivo pilot study on 70Z/3 leukemic mice. The method, then:
as §2

The test system of the next series is 70Z/3 (murine). The series is described as follows: WST-1 cell growth assay (Table 3). It is filed as cell-based. The conditions noted are these: Mus musculus, 72 h; 70Z/3 murine B cell leukemia, 3 days. How it is done:
as §1
In a pilot study, first the in vivo effects of compound Ic in a murine tumor model (70Z/3) were studied. This murine model served to provide the baseline for toxicity data in a tumor setting. […] In this pilot study, 10^6 70Z/3 cells were injected into syngeneic mice (C57BL6×DBA/2) after which the mice were treated with compound Ic on days 2, 3, 4, 7, 8, and 9 at doses of 0.15 mg/kg or 1.5 mg/kg or with PBS. Some mice were also treated with the compound alone to test for toxic effects in the absence of tumor growth. On day 10, two mice from each group were euthanized and they were examined for the presence of disease. After 70Z/3 cells are injected they home to the spleen and proliferate causing increased spleen weight and cellularity. […] It would appear from this very small pilot study that mice can tolerate a dose of the drug which is ten times more than a dose which reduces tumor expansion in the spleen (FIG. 4 and Table 2). […]

Another series has as its system OVCAR4. The series is described as follows: WST-1 cell growth assay (Table 3). Particulars: Homo sapiens, OVCAR-4, 72 h; OVCAR4 ovarian adenocarcinoma, 3 days. In kind it is cell-based. How it is done:
as §1

The next series concerns COLO205. In words: WST-1 cell growth assay (Table 3). It is filed as cell-based. The conditions noted are these: Homo sapiens, COLO 205, 72 h; COLO205 colorectal adenocarcinoma, 3 days. How it is done: as §1
A further series deals with PC3. The series is described as follows: WST-1 cell growth assay (Table 3). In kind it is cell-based. Particulars: Homo sapiens, PC-3, 72 h; PC3 prostate adenocarcinoma, 3 days. The method, then:
as §1

A further series has as its system T47D. In words: WST-1 cell growth assay (Table 3). The conditions noted are these: Homo sapiens, 72 h; T47D breast adenocarcinoma, 3 days. It is filed as cell-based. The method, then: as §1
In another series the test system is PPC1. The series is described as follows: WST-1 cell growth assay (Table 3). In kind it is cell-based. The conditions noted are these: Homo sapiens, PPC-1, 72 h; PPC1 prostate, 3 days. How it is done:
as §1

Another series has as its system MDA-MB-468. In words: WST-1 cell growth assay (Table 3). In kind it is cell-based. Particulars: Homo sapiens, 72 h; MDA-MB-468 breast adenocarcinoma, 3 days. The method, then:
as §1

Another series concerns MCF7. In words: WST-1 cell growth assay (Table 3). In kind it is cell-based. Particulars: Homo sapiens, 72 h; MCF7 breast adenocarcinoma, 3 days. How it is done:
as §1

For another series, the system named is OCI LY7. In words: WST-1 cell growth assay (Table 3). In kind it is cell-based. The conditions noted are these: Homo sapiens, 72 h; OCI LY7 B cell lymphoma, 3 days. How it is done: as §1
The next series relates to HS578T. In words: WST-1 cell growth assay (Table 3). In kind it is cell-based. Particulars: Homo sapiens, Hs-578T, 72 h; HS578T breast carcinosarcoma, 3 days. The method, then: as §1
The subject of a further series is SNB19. In words: WST-1 cell growth assay (Table 3). In kind it is cell-based. The conditions noted are these: Homo sapiens, SNB-19, 72 h; SNB19 glioblastoma, 3 days. The method, then:
as §1

The test system of the next series is CCD967. In words: WST-1 cell growth assay (Table 3). It is filed as cell-based. Particulars: Homo sapiens, CCD-967, 72 h; CCD967 skin fibroblast line, 3 days. The method, then: as §1
The subject of another series is OCI AML2. The series is described as follows: WST-1 cell growth assay (Table 3). It is filed as cell-based. The conditions noted are these: Homo sapiens, 72 h; OCI AML2 myloid leukemia, 3 days. How it is done:
as §1

The next series deals with SKW3. In words: WST-1 cell growth assay (Table 3). It is filed as cell-based. The conditions noted are these: Homo sapiens, 72 h; SKW3 T cell leukemia, 3 days. How it is done: as §1
The test system of the next series is OCI MY2. The series is described as follows: WST-1 cell growth assay (Table 3). In kind it is cell-based. The conditions noted are these: Homo sapiens, 72 h; OCI MY2 myeloma, 3 days. How it is done:
as §1

The subject of another series is LOX. In words: WST-1 cell growth assay (Table 3). It is filed as cell-based. The conditions noted are these: Homo sapiens, 72 h; LOX melanoma, 3 days. How it is done:
as §1

Another series concerns OCI AML1. The series is described as follows: WST-1 cell growth assay (Table 3). Particulars: Homo sapiens, 72 h; OCI AML1 myloid leukemia, 3 days. In kind it is cell-based. The method, then: as §1
For another series, the target named is ODCase. Particulars: cited from earlier work.
Where [6] appears, read: Homo sapiens, volunteer, read-out: IC50.
[7] abbreviates: healthy human PBMCs stimulated with concanavalin A and phorbol myristate acetate, read-out: inhibitory constants (IC50's).

Where two headings read alike, the source gives them in different places.

Chain of Mt ODCase (O26232 whole entry): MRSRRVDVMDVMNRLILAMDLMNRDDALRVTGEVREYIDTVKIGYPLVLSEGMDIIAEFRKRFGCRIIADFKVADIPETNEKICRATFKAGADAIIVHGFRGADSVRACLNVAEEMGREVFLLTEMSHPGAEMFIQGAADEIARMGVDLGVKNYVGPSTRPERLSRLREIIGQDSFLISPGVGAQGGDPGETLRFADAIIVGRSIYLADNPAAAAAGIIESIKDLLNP

Usually Ki stands for a measure of affinity in units of concentration, obtained from inhibition or displacement. For `O=c1cnn([C@@H]2O[C@H](COP(=O)(O)O)[C@@H](O)[C@H]2O)c(=O)[nH]1` [6-Aza-uridine uridine 5′-monophosphate, 6-aza-uridine 5′-monophosphate], at Mt ODCase, the Ki was 11 µM.
As for `NC(=O)c1[nH]nc([C@@H]2O[C@H](CO)[C@@H](O)[C@H]2O)c1O` [pyrazofurin], in series [1], the “accumulation of OMP” value is “eight-fold increase”.
As for `Nc1cc(=O)[nH]c(=O)n1[C@@H]1O[C@H](CO)[C@@H](O)[C@H]1O` [Ic, 6-Amino uridine], the IC50 in series [2] was 0.7 to 3.5 µM; in [3] (setting [6]), more than 10 µM; in [3] (setting [7]), more than 10 µM; with 70Z/3 (murine), 0.3 µM; with OVCAR4, more than 4 µM; in the series on COLO205, more than 4 µM. Moreover, the IC50 in the series with PC3 is more than 4 µM; in the series with T47D, more than 4 µM; with PPC1, more than 4 µM; in the series with MDA-MB-468, 3.7 ± 0.1 µM; in the series on MCF7, 1.5 ± 0.1 µM; in the series on OCI LY7, 1.8 ± 0.1 µM. In addition, the IC50 in the series with HS578T is more than 4 µM; with SNB19, more than 4 µM; in the series with CCD967 it was more than 4 µM; in the series on OCI AML2, 0.9 ± 0.1 µM; in the series with SKW3 it was 0.8 ± 0.1 µM; in the series on OCI MY2 it was more than 4 µM. Also, the IC50 in the series with LOX was more than 4 µM; in the series with OCI AML1 it was 0.8 ± 0.1 µM. Further, the tolerance result in [4] was “tolerated these doses without apparent toxicity”. The disease progression entry in [5] (followed for an additional 7 days, treated daily, untreated mice died on days 11 and 13) is listed as “no sign of disease progression”. Also, the “spleen weight and cellularity” value in [5] (mice injected with 10^6 70Z/3 cells, 0.15 mg/kg or 1.5 mg/kg on days 2, 3, 4, 7, 8, 9, day 10) is “indistinguishable from the control mice”. Further, the “spleen weight or cellularity, compound alone” value in series [5] (mice without tumor, compound alone, day 10) is given as “did not influence spleen weight or cellularity”.
Consider `[N-]=[N+]=Nc1cc(=O)[nH]c(=O)n1[C@@H]1O[C@H](CO)[C@@H](O)[C@H]1O` [Id, 6-Azido uridine], for which the IC50 in series [2] was 0.7 to 3.5 µM; in series [3] (setting [6]), more than 10 µM; in series [3] (setting [7]), more than 10 µM; with 70Z/3 (murine), 0.2 µM; in the series on OVCAR4, more than 4 µM; in the series on COLO205, more than 4 µM. In addition, the IC50 in the series with PC3 was more than 4 µM; in the series on T47D it was more than 4 µM; with PPC1, more than 4 µM; in the series on MDA-MB-468 it was 2.5 ± 0.3 µM; in the series with MCF7, 1 ± 0.2 µM; in the series on OCI LY7 it was 1 ± 0.2 µM. The IC50 is more than 4 µM with HS578T; more than 4 µM in the series with SNB19; more than 4 µM in the series on CCD967; 0.8 ± 0.2 µM with OCI AML2; 0.7 ± 0.1 µM in the series with SKW3; 3.8 µM with OCI MY2. Further, the results for the IC50 in the series on LOX and with OCI AML1 were 3.8 ± 0.2 µM and 0.7 ± 0.1 µM, respectively.
For `NC(=O)c1[nH]nc(C2OC(COP(=O)(O)O)C(O)C2O)c1O` (centres unmarked) [Pyrazofurin 5′-monophosphate], the Ki on ODCase was 0.005 µM.

Source of the values: US20100056468A1, “Pyrimidine Derivatives As Anticancer Agents” (University Health Network, priority 2007, published 2010).
